Laboratory results as given in patent publication US20100209934A1, “METHOD OF IDENTIFYING AGENTS WHICH MODULATE THE ACTIVITY OF CALCIUM-ACTIVATED CHLORIDE CHANNEL” (SNU R&DB FOUNDATION, priority 2007, published 2010).
Read-outs that look alike come from different tables or passages of the source.

Legend:
mANO1 [1] = assay: FLIPR membrane potential (voltage-sensing fluorescence) assay in mANO1-stably expressing HEK cells; format: cell-based, mouse; settings: for membrane potential change detected by fluorescent intensity: 100 μM ATP or 10 μM A23187, mANO1-stably expressing HEK cells, not seen in control HEK cells
Description: The activity of the ANO1-stable cell line was characterized with a FLIPR® Membrane Potential assay kit (Molecular devices, Sunnyvale, Calif.) according to the manufacture's instructions. ANO1-stable cell lines were seeded into poly-D-lysine coated 96-well plates (50,000 cells/each well). One day after the plating, the cells were incubated with 50 μl Hank's balanced salt solution (HBSS) containing membrane potential dye for 40 min at 37° C. To test the activity of ANO1 stable cell line, 100·μM ATP or 10·μM A23187 (Sigma, St Louis, Mo., USA) was added to each well for 20 sec after starting detection. The fluorescence intensity was measured by a fluorometric imaging plate reader (FlexStation™ II, MolecularDevices). Membrane potential dye was excited at 530 nm, and the intensity of fluorescence emitted at 565 nm was measured.
To determine if ANO1 is applicable for high-throughput screening (HTS) analysis, we constructed a stable cell line that constitutively expresses mANO1 (Reference example 7). The mANO1 stable cell line was grown in wells of a 96-well plate. mANO1-stably expressing HEK cells were incubated with a voltage sensor fluorescent dye (FLIPR®-membrane potential assay kit, Molecular Device) to detect change in membrane potential when ANO1 is activated. When ANO1 is activated, Cl^− would flux out the cell to depolarize the membrane, which makes the fluorescence dye fluoresce. After wash out the fluorescent dye, 100 μM ATP was applied. […] Fluorescent intensity was detected at excitation 530 nm and emission 565 nm by FlexStation 2 (Molecular device). […] F/F0: ratio of fluorescence intensity. Pretreatment of 2APB, a known blocker of IP3 receptor, blocked the ATP induced-membrane potential change in ANO1-stably expressing HEK cells (FIG. 13C).

mANO1 [2] = assay: Whole-cell current response to GPCR stimulation in HEK 293T cells co-transfected with mANO1 and a GPCR; format: cell-based, mouse
Description: HEK 293T cells were transfected with pEGFP-N1 (control) (1.0 μg) or pEGFP-N-1-mANO1 (0.8˜1.0 μg) and/or any one of the GPCR cDNAs (1.0 μg) obtained in Reference Example 2, using a FuGENE® HD transfection reagent (Roche Diagnostics, Penzberg, Germany). Transfected cells were maintained in DMEM supplemented with heat inactivated 10% fetal bovine serum (GIBCO BRL, Rockville, Md.) and penicillin-streptomycin at 37 in a 5% CO2 humidified atmosphere. One or two days after transfection, transfected cells were used for biochemical and electrophysiological experiments.
(§1) To form gigaseals, individual cell surfaces were touched with a ˜3 Mohm Sylgard-coated glass pipette with gentle suction, and the junction potential was then adjusted to 0 mV. The membrane in contact with the pipette was then ruptured by suction to form a whole cell. The pipette solution contained 140 mM NMDG-Cl, 2 mM MgCl2, 10 mM HEPES, 2 mM ATP, and 0.3 mM GTP adjusted to pH 7.2, and the bath solution contained 140 mM NMDG-Cl, 2 mM MgCl2 and 10 mM HEPES (pH 7.2). For ion selectivity experiments, 140 mM NMDG-Cl was replaced with equimolar NaCl, NaL NaBr, NaNO3, NaF, or Na-gluconate in the bath solution. To determine current-voltage relationships, voltage ramps from −80 or −100 mV to +80 or +100 mV were delivered for 350 ms, or voltage-pulses from −100 mV to +100 mV were delivered for 400 ms to whole cells. When mANO1 was activated by 300 nM intracellular Ca^2+, voltage-pulses of 2500 ms were delivered. Whole-cell currents were amplified using an Axopatch 200B amplifier (Molecular Device, Sunnyvale, Calif.) and stored in a personal computer after digitization by a Digidata 1440 (Molecular Device). For single-channel current recordings, cell-attached or inside-out patches were formed from gigaseals. The pipette and control bath solution contained 140 mM NMDG-Cl, 2 mM MgCl2 and 10 mM HEPES (pH 7.2). […] To create amplitude histograms, pClamp software (version 6.0, Molecular Device) was used to analyze open and closed single-channel current events. The half-amplitude algorithm was used to determine an open event. The minimum duration of an open event was set at 0.1 ms.
Under physiological conditions CaCCs are known to be activated by GPCR stimulation. Endothelin-1 is a powerful vasoconstrictor that depolarizes vascular smooth muscle by activating CaCCs (Klockner, U. & Isenberg, G., Pflugers Arch. 418, 168-75 (1991); and Salter, K. J. & Kozlowski, R. Z., J Pharmacol Exp Ther. 279, 1053-62 (1996)). Thus, mANO1 and endothelin receptor subtype A (ETAR) were transfected into HEK 293T cells, along with GFP for visual identification of transfected cells, in accordance with the method of Reference Example 5. Whole cells were used to test the current response of mANO1 to ETAR stimulation. Pipette and bath solutions contained 140 mM N-methyl D-glucamine (NMDG)-Cl, which permitted Cl^− to be used as the main charge carrier. The pipette solution was Ca^2+ free and contained no EGTA. […] In contrast, endothelin-1 evoked currents were minimal in HEK cells transfected with ETAR or control (GFP-transfected only) cells. When mANO1 was transfected alone, 50 nM endothelin-1 evoked appreciable currents; presumably because of the presence of endogenous endothelin receptors in HEK cells.

mANO1 [3] = target: T1, mANO1 (Mus musculus, UniProt Q8BHY3, S527P); assay: Ca2+ activation of macroscopic currents in inside-out patches from ANO1/ETAR-HEK cells; format: biochemical; parameters: expressed in transfected cells; settings: for EC50: inside-out patches
T1 sequence (Q8BHY3 1-960 S527P): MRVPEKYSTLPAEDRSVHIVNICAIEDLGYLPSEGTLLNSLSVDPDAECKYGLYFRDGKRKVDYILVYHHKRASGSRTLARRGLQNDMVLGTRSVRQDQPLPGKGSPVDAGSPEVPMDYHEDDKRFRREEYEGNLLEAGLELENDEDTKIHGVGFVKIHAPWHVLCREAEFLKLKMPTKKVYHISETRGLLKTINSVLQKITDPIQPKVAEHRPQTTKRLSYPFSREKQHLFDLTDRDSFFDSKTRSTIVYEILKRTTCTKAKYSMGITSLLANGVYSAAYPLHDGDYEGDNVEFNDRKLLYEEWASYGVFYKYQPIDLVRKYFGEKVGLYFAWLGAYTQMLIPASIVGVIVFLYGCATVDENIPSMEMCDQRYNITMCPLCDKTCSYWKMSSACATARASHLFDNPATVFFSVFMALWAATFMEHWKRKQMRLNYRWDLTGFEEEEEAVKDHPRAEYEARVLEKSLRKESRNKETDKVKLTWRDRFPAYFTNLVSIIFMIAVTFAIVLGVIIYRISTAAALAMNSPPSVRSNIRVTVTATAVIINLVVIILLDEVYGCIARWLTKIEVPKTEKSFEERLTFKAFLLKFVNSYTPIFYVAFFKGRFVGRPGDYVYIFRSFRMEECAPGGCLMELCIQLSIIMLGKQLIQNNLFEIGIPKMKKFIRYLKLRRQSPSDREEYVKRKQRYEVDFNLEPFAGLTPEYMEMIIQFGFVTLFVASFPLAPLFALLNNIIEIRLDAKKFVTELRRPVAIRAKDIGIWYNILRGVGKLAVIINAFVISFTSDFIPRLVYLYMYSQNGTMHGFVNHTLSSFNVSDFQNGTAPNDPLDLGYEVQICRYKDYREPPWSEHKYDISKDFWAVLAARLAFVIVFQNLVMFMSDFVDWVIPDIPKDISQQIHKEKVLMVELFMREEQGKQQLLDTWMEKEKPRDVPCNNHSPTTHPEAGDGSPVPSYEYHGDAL
Description: A. Macroscopic current responses to repeated applications of Ca^2+ in various concentrations to the bath of inside-out patches isolated from mANO1-ETAR/HEK cells at holding potentials of −60 or +60 mV. Pipette and bath solution contained 140 mM NMDG-Cl.
B. Dose-response relationship of mANO1 activation by Ca^2+. Current responses were normalized versus those observed at 10 μM (−60 mV, n=8) or 3 μM Ca^2+ (+60 mV, n=8). Data points were fitted to the Hill's equation. (Error bars=Mean±S.E.M)
as §1
Ca^2+ in various concentrations applied to the bath (intracellular side) evoked macroscopic […] currents in a dose-dependent manner (Ehold=−60 mV) (FIG. 7A). […] The threshold concentration of Ca^2+ reached about 0.3 μM at −60 mV holding potential (FIG. 7B). Remarkably, ANO1 activation by Ca^2+ was voltage-dependent, which is also characteristic of endogenous CaCCs (Nilius, B. et al., Cell Calcium 22, 53-63 (1997), Kuruma, A. & Hartzell, H. C., J Gen Physiol 115, 59-80 (2000), Evans, M. G. & Marty, A., J Physiol 378, 437-60 (1986)). At a depolarized membrane potential (+60 mV), ANO1 was more sensitive to Ca^2+ and the concentration-response curve shifted to the left, resulting in an EC50 of 0.4 μM (FIG. 7B). Hill's coefficients of the concentration-response curves were 2.0 and 2.4 at −60 and +60 mV, respectively.

hANO1 = assay: Current recording in hANO1/ETAR-HEK cells; format: cell-based, human; settings: 50 nM endothelin-1
Description: The hANO1 (human TMEM16A; NM_018043, GI: 40354209) was cloned from human trachea total RNAs (Clontech, Palo Alto, Calif.) by PCR method using following primers; forward primer 5′-CTCGAGGCCACCATGAGGGTCAACGAGAAGTACTC-3′ (SEQ ID NO: 8) and reverse primer 5′-GGTACCCTACAGGACGCCCCCGTGGTAG-3′ (SEQ ID NO: 9). The PCR product was cut with XhoI and KpnI, and then inserted into XhoI/KpnI site of pSDTF or pEGFP-N1.
To form gigaseals, individual cell surfaces were touched with a ˜3 Mohm Sylgard-coated glass pipette with gentle suction, and the junction potential was then adjusted to 0 mV. The membrane in contact with the pipette was then ruptured by suction to form a whole cell. The pipette solution contained 140 mM NMDG-Cl, 2 mM MgCl2, 10 mM HEPES, 2 mM ATP, and 0.3 mM GTP adjusted to pH 7.2, and the bath solution contained 140 mM NMDG-Cl, 2 mM MgCl2 and 10 mM HEPES (pH 7.2). For ion selectivity experiments, 140 mM NMDG-Cl was replaced with equimolar NaCl, NaL NaBr, NaNO3, NaF, or Na-gluconate in the bath solution. To determine current-voltage relationships, voltage ramps from −80 or −100 mV to +80 or +100 mV were delivered for 350 ms, or voltage-pulses from −100 mV to +100 mV were delivered for 400 ms to whole cells. When mANO1 was activated by 300 nM intracellular Ca^2+, voltage-pulses of 2500 ms were delivered. […]

Molecule: NCCOB(c1ccccc1)c1ccccc1 [2APB]
- block of ATP induced-membrane potential change (mANO1 [1]; pretreatment of 2APB, ANO1-stably expressing HEK cells): blocked

Molecule: CNc1ccc2oc(C[C@H]3O[C@@]4(CC[C@H]3C)O[C@H]([C@H](C)C(=O)c3ccc[nH]3)[C@H](C)C[C@H]4C)nc2c1C(=O)O [A23187]
- membrane potential change detected by fluorescent intensity (mANO1 [1]): evoked membrane potential change

Molecule: Nc1ncnc2c1ncn2[C@@H]1O[C@H](COP(=O)(O)OP(=O)(O)OP(=O)(O)O)[C@@H](O)[C@H]1O [ATP]
- inward currents activated by ATP (mANO1 [2]; ATP 100 μM, mANO1 co-transfected with P2Y2R in HEK 293T cells, Ehold −60 mV): Large inward currents
- membrane potential change detected by fluorescent intensity (mANO1 [1]): evoked robust change in membrane potentials

Molecule: [Ca+2] [Ca^2+]
- Hill's coefficient of concentration-response curve (mANO1 [3]; +60 mV): 2.4
- EC50 (mANO1 [3]; depolarized membrane potential +60 mV, read-out: EC50 for ANO1 activation): 400 nM
- EC50 (mANO1 [3]; holding potential −60 mV, read-out: half-maximal concentration (EC50) for ANO1 activation): 2600 nM
- Hill's coefficient of concentration-response curve (mANO1 [3]; −60 mV): 2.0
- threshold concentration for ANO1 activation (mANO1 [3]; −60 mV holding potential): about 0.3 μM

Molecule: endothelin-1 (CSCSSLMDKECVYFCHLDIIW) [powerful vasoconstrictor; ligand of endothelin receptor subtype A (ETAR)]
- endothelin-1 evoked inward currents (mANO1 [2]; 50 nM endothelin-1, mANO1-ETAR/HEK cells, whole cell, membrane potential −60 mV): evoked robust inward currents
- second responses relative to first responses (tachyphylaxis) (mANO1 [2]; 50 nM endothelin-1 applied twice with a 5 min interval, ANO1/ETAR-HEK cells, n=12, no blocker): 87.1±11.4%
- endothelin-1 evoked Cl− currents (hANO1): evoked large Cl^− currents
